Results reported in PubChem BioAssay (NCI).
Several values for one entry are separate records, joined by “and”; a condition that tells them apart may be missing. Identical values can stand only once.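 96-well plates; 48 h exposure; 5 concentrations. Endpoints by linear interpolation between flanking doses. Not reached: highest tested concentration assigned. At the GI50, growth is halved. Definition used: TGI = concentration required for complete inhibition of growth.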

Experiments:
Assay in all cases: growth of human tumour cells (NCI), 48 h
NCI-H522 lung = test system: NCI-H522 lung
MDA-MB-231 breast = test system: MDA-MB-231 breast
MOLT-4 leukemia = test system: MOLT-4 leukemia
T-47D breast = test system: T-47D breast
HS 578T breast = test system: HS 578T breast
HL-60(TB) leukemia = test system: HL-60(TB) leukemia
SK-MEL-2 melanoma = test system: SK-MEL-2 melanoma
HCT-15 colon = test system: HCT-15 colon
A498 renal = test system: A498 renal
K-562 leukemia = test system: K-562 leukemia

| SMILES | TGI (NCI-H522 lung) | TGI (MDA-MB-231 breast) | TGI (MOLT-4 leukemia) | TGI (T-47D breast) | TGI (HS 578T breast) | TGI (HL-60(TB) leukemia) | TGI (SK-MEL-2 melanoma) | TGI (HCT-15 colon) | TGI (A498 renal) | TGI (K-562 leukemia) | GI50 (NCI-H522 lung) | GI50 (MDA-MB-231 breast) | GI50 (MOLT-4 leukemia) | GI50 (T-47D breast) | GI50 (HS 578T breast) | GI50 (HL-60(TB) leukemia) | GI50 (SK-MEL-2 melanoma) | GI50 (HCT-15 colon) | GI50 (A498 renal) | GI50 (K-562 leukemia) |
| --- | --- | --- | --- | --- | --- | --- | --- | --- | --- | --- | --- | --- | --- | --- | --- | --- | --- | --- | --- | --- |
| COCCNc1cncc(C(N)=O)c1 | > 100 µM | > 100 µM | > 100 µM | > 100 µM | > 100 µM | > 100 µM | > 100 µM | > 100 µM | > 100 µM | > 100 µM | – | – | – | – | – | – | – | – | – | – |
| C=C1CCC2C3(C)COC(c4ccccc4Cl)OC3CCC2(C)C1/C=C/C1=CCOC1=O (centres undefined) | > 100 µM | > 100 µM | > 100 µM | > 100 µM | > 100 µM | > 100 µM | > 100 µM | > 100 µM | > 100 µM | > 100 µM | 4.24 µM | > 100 µM | 3.77 µM | 3.39 µM | > 100 µM | 4.97 µM | 77.7 µM | 6.6 µM | > 100 µM | 3.61 µM |
| O=C[C@@H](CO)O[C@H](C=O)n1cnc2c(=O)[nH]cnc21 | 866 µM | 1010 µM | 686 µM | 404 µM | 2390 µM | 217 µM | 1400 µM | 417 µM | 2150 µM | 496 µM | – | – | – | – | – | – | – | – | – | – |
| O=C([O-])CC(=O)[O-].[NH-][C@@H]1CCCC[C@H]1[NH-].[Pt+4] | > 100 µM | > 100 µM | 61.4 µM | > 100 µM | > 100 µM | > 100 µM | > 100 µM | > 100 µM | > 81.5 µM | > 100 µM | 18.7 µM | > 100 µM | 1.29 µM | 8.38 µM | 19.6 µM | 6.31 µM | 59.9 µM | 9.61 µM | 20.7 µM | 3.66 µM |
| CC[C@H](C)[C@H](NC(=O)c1cccn1C)C(=O)N(C)[C@H](C[C@@H](OC(C)=O)c1nc(C(=O)N[C@@H](Cc2ccccc2)C[C@H](C)C(=O)OC)cs1)C(C)C | 2.08 µM | 5.75 µM | > 33.3 µM | > 33.3 µM | > 31.2 µM | 0.208 µM | > 33.3 µM | > 33.3 µM | 7.06 µM | > 33.3 µM | 0.0661 µM | 0.364 µM | 0.429 µM | 0.0946 µM | 0.226 µM | 0.076 µM | 0.347 µM | 0.337 µM | 0.0722 µM | 0.177 µM |
| CNC(=O)c1ccccc1Nc1nc(Nc2ccc3c(c2OC)CCC[C@H](N2CCN(CCO)CC2)C3)ncc1Cl | 10.5 µM and 4.32 µM | 3.26 µM and 7.04 µM | 6.75 µM and > 10 µM | 17.8 µM and > 10 µM | 16.2 µM and > 10 µM | 2.04 µM and 2.38 µM | 5.9 µM and 2.7 µM | 6.32 µM and 5.69 µM | 3.23 µM and 9.95 µM | 5.94 µM and 8.55 µM | 1.89 µM and 1.12 µM | 1.34 µM and 1.62 µM | 2.45 µM and 2.82 µM | 2.34 µM and 2.95 µM | 2.13 µM and 2.4 µM | 0.403 µM and 0.305 µM | 1.56 µM and 0.613 µM | 0.589 µM and 0.552 µM | 1.38 µM and 2.22 µM | 2.25 µM and 2.51 µM |
| CCn1c(-c2nonc2N)nc2c(N3CCCC3)nccc21 | > 25 µM | > 25 µM | > 25 µM | > 25 µM | > 25 µM | > 25 µM | > 25 µM | > 25 µM | > 25 µM | > 25 µM | 10.9 µM | > 18.8 µM | 10.5 µM | 20.4 µM | > 19.4 µM | 24.9 µM | > 25 µM | 11.2 µM | 8.39 µM | 10.3 µM |
| COc1ccc(-c2cc(=O)c3c(O)c(OC)c(OC)c(OC)c3o2)cc1 | > 100 µM | > 72 µM | > 100 µM | > 100 µM | > 93.7 µM | > 100 µM | > 81.3 µM | > 100 µM | > 27.6 µM | > 100 µM | – | – | – | – | – | – | – | – | – | – |
| CN1CCN(CCCOc2cc(O)c3c(=O)cc(-c4ccccc4)oc3c2)CC1 | 47 µM | 31.7 µM | 38.8 µM | 79.2 µM | 52.9 µM | 39.5 µM | > 100 µM | 16.3 µM | 43.4 µM | 21.9 µM | 21.6 µM | 16.3 µM | 17.3 µM | 28 µM | 23 µM | 19.1 µM | 35.3 µM | 4.6 µM | 22 µM | 6.98 µM |
| COc1ccc(S(=O)(=O)N(C(C)=O)c2ccccc2/C=C/c2cc[n+]([O-])cc2)cc1 | 1.65 µM | > 10 µM | > 10 µM | > 10 µM | > 10 µM | > 6.53 µM | > 10 µM | > 10 µM | > 2.8 µM | > 3.17 µM | 0.225 µM | 1.26 µM | 1.25 µM | 3.84 µM | 0.404 µM | 0.64 µM | 0.54 µM | 0.742 µM | 0.209 µM | 0.321 µM |
| CCC1=C(CC2NCCc3ccccc32)CC2c3cc(OC)c(OC)cc3CCN2C1 (centres undefined) | – | 14.4 µM and 1.75 µM | 13.8 µM and 2.2 µM | 16.8 µM and 5.85 µM | 12.8 µM and 3.73 µM | 10.7 µM and 5.01 µM | 16.6 µM and 2.64 µM | 30.8 µM and 20.4 µM | 19.6 µM and 5.8 µM | 7.41 µM and 2.1 µM | 4.22 µM | 3.4 µM | 3.39 µM | 3.9 µM | 3.07 µM | 2.89 µM | 4.64 µM | 5.17 µM | 4.25 µM | 2.26 µM |
| CC(C)(C)OC(=O)Nc1ccc2c(c1)C(NC(=O)Nc1cccc(C#N)c1)CC(C)(C)O2 (centres undefined) | 54.7 µM | > 50.7 µM | > 64.6 µM | 33 µM | > 100 µM | 22.3 µM | 31.4 µM | > 51.3 µM | > 100 µM | > 100 µM | 3.61 µM | 4.17 µM | 1.96 µM | 2.52 µM | 8.79 µM | 2.39 µM | 6.4 µM | 1.89 µM | 7.14 µM | 2.12 µM |
| CC/C(=C/c1ccc(OC)cc1OC)[N+](=O)[O-] | 3.58 µM | 8.96 µM | 35.6 µM | 5.06 µM | 63.4 µM | 7.93 µM | 8.73 µM | 4.54 µM | 10.2 µM | 61.5 µM | 1.79 µM | 3.08 µM | 3.73 µM | 1.72 µM | 7.76 µM | 2.6 µM | 2.64 µM | 1.87 µM | 2.75 µM | 2.91 µM |
| CN(C)CCCNc1nc2ccccc2c2[nH]c3ccccc3c12 | 11.1 µM | 2.16 µM | 50 µM | 16.5 µM | 9.61 µM | 2.49 µM | 38.8 µM | 4.31 µM | 13.4 µM | 22.2 µM | 1.32 µM | 0.907 µM | 0.276 µM | 5.18 µM | 3.04 µM | 1.05 µM | 6.69 µM | 0.266 µM | 6.42 µM | 1.64 µM |
